Common to all, as to type: in vivo
Assay [1] relates to Echinochloa crus-galli (ECHCG). Kind of assay: Post-emergence biological efficacy, glasshouse pot test. Conditions: 312 h, 1,000 g/ha, evaluated after 13 days, 100=total damage, 0=no damage, read-out: Percentage damage caused to weed species, post-emergence, ECHCG. Summed up: (§1)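 Seeds are sown in pots of standard soil and grown 8 days under controlled glasshouse conditions (24/16 °C, 14 h photoperiod, 65% humidity). Seedlings are then sprayed at 1000 or 250 g/ha, kept under the same conditions with twice-daily watering, and assessed on a 0–100 damage scale after 13 days.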

Assay [2] concerns Ipomea hederaceae (IPOHE). The assay is described as above. Conditions: Ipomoea hederacea, 312 h, 1,000 g/ha, evaluated after 13 days, 100=total damage, 0=no damage, read-out: Percentage damage caused to weed species, post-emergence, IPOHE. Summed up: as §1
Assay [3] concerns Setaria faberi (SETFA). The assay is described as above. The settings on record: 312 h, 1,000 g/ha, evaluated after 13 days, 100=total damage, 0=no damage, read-out: Percentage damage caused to weed species, post-emergence, SETFA. In outline:
as §1

The subject of assay [4] is Solanum nigrum (SOLNI). The assay is described as above. The settings on record: 312 h, 1,000 g/ha, evaluated after 13 days, 100=total damage, 0=no damage, read-out: Percentage damage caused to weed species, post-emergence, SOLNI. Summed up:
as §1

The subject of assay [5] is Alopecurus myosuroides (ALOMY). Described as above. The settings on record: 312 h, 1,000 g/ha, evaluated after 13 days, 100=total damage, 0=no damage, read-out: Percentage damage caused to weed species, post-emergence, ALOMY. In outline:
as §1

Assay [6] deals with Amaranthus retroflexus (AMARE). The description is as above. The settings on record: 312 h, 1,000 g/ha, evaluated after 13 days, 100=total damage, 0=no damage, read-out: Percentage damage caused to weed species, post-emergence, AMARE. Summed up:
as §1

For assay [7], the system named is Echinochloa crus-galli (ECHCG). Kind of assay: Pre-emergence biological efficacy, glasshouse pot test. The settings on record: 312 h, 1,000 g/ha, evaluated after 13 days, 100=total damage, 0=no damage, read-out: Percentage damage caused to weed species, pre-emergence, ECHCG. In outline:
(§2)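 Damage ratings (0 no damage to 100 total damage) were taken 13 days after treatment. Compound had been applied at 1000 or 250 g/ha as an aqueous spray from acetone/water (50:50) with 0.5% Tween 20, one day after sowing in soil.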

The test system of assay [8] is Ipomea hederaceae (IPOHE). Described as above. The settings on record: Ipomoea hederacea, 312 h, 1,000 g/ha, evaluated after 13 days, 100=total damage, 0=no damage, read-out: Percentage damage caused to weed species, pre-emergence, IPOHE. Summed up: as §2
Assay [9] deals with Setaria faberi (SETFA). Described as above. The settings on record: 312 h, 1,000 g/ha, evaluated after 13 days, 100=total damage, 0=no damage, read-out: Percentage damage caused to weed species, pre-emergence, SETFA. Summed up: as §2
Assay [10] concerns Solanum nigrum (SOLNI). Described as above. Conditions: 312 h, 1,000 g/ha, evaluated after 13 days, 100=total damage, 0=no damage, read-out: Percentage damage caused to weed species, pre-emergence, SOLNI. In outline:
as §2

For assay [11], the system named is Alopecurus myosuroides (ALOMY). Described as above. The settings on record: 312 h, 1,000 g/ha, evaluated after 13 days, 100=total damage, 0=no damage, read-out: Percentage damage caused to weed species, pre-emergence, ALOMY. Summed up:
as §2

The subject of assay [12] is Amaranthus retroflexus (AMARE). Described as above. The settings on record: 312 h, 1,000 g/ha, evaluated after 13 days, 100=total damage, 0=no damage, read-out: Percentage damage caused to weed species, pre-emergence, AMARE. Summed up:
as §2

On to `COC(=O)c1nc(Cl)cc(NCc2cccc(F)c2)c1Cl` [Compound 7-2, 3,6-Dichloro-4-[(3-fluorophenylmethyl)-amino]-pyridine-2-carboxylic acid methyl ester], for which the pest or weed control at 1000 g/ha in [1] worked out at 50%; in assay [2] it was 80%; with Setaria faberi (SETFA) [3], 90%; in the assay with Solanum nigrum (SOLNI) [4] it was 100%; in assay [5] it was 50%; in [6], 100%. In addition, the pest or weed control at 1000 g/ha in [7] was found to be 50%; in assay [8] it was 100%; in the assay on Setaria faberi (SETFA) [9] it was 80%; in the assay on Solanum nigrum (SOLNI) [10] it was 100%; in assay [11], 50%; in assay [12], 100%.
Consider `COC(=O)c1nc(Cl)cc(NCc2ccco2)c1C` [Compound 26-19, 6-chloro-4-[(furan-2-ylmethyl)-amino]-3-methyl-pyridine-2-carboxylic acid methyl ester], for which the pest or weed control at 1000 g/ha in assay [1] was 30%; in assay [2], 40%; in the assay with Setaria faberi (SETFA) [3] it was 70%; in the assay with Solanum nigrum (SOLNI) [4] it was 90%; in [5], 60%; in [6], 100%. The pest or weed control at 1000 g/ha in assay [7] is 0%; in [8], 40%; with Setaria faberi (SETFA) [9], 70%; in the assay with Solanum nigrum (SOLNI) [10], 100%; in assay [11] it was 70%; in [12] it was 100%.
In the case of `COC(=O)c1nc(Cl)cc(NCc2ccccc2Br)c1Cl` [Compound 72-2, 4-[(2-Bromophenyl-methyl)-amino]-3,6-dichloro-pyridine-2-carboxylic acid methyl ester], the pest or weed control at 1000 g/ha in assay [1] amounted to 10%; in assay [2], 70%; in the assay on Setaria faberi (SETFA) [3], 70%; in the assay with Solanum nigrum (SOLNI) [4] it was 100%; in assay [5], 20%; in [6], 100%. Moreover, the pest or weed control at 1000 g/ha came to 10% in assay [7]; 80% in assay [8]; 30% in the assay with Setaria faberi (SETFA) [9]; 100% in the assay with Solanum nigrum (SOLNI) [10]; 30% in assay [11]; 90% in [12].
Regarding `C=Cc1c(NCc2ccccc2Cl)cc(Cl)nc1C(=O)OC` [Compound 3-12, 6-Chloro-4-[(2-chlorophenyl-methyl)-amino]-3-ethenyl-pyridine-2-carboxylic acid methyl ester], the pest or weed control at 1000 g/ha in assay [1] amounted to 20%; in assay [2], 40%; in the assay on Setaria faberi (SETFA) [3], 10%; in the assay on Solanum nigrum (SOLNI) [4] it was 90%; in [5] it was 0%; in assay [6], 100%. Besides, the pest or weed control at 1000 g/ha in assay [7] came to 0%; in assay [8], 50%; with Setaria faberi (SETFA) [9] it was 10%; in the assay on Solanum nigrum (SOLNI) [10], 90%; in assay [11], 20%; in assay [12] it was 100%.

Source of the values: US20120100990A1, “4 -AMINOPICOLINATES AND THEIR USE AS HERBICIDES” (SYNGENTA CROP PROTECTION LLC, priority 2009, published 2012).
